According to US7749981B2, “Drug-eluting stents coated with non-nucleotide P2Y12 receptor antagonist compound” (Inspire Pharmaceuticals, Inc., priority 2005, dated 2010):

Tested on: washed human platelets
Experiment: Inhibition of ADP-induced platelet aggregation in washed human platelets
Format: cell-based
Procedure: Isolation of Platelets: Human blood is obtained from informed healthy adult volunteers. Blood is collected into one-sixth volume of acid/citrate/dextrose (ACD) buffer (85 mM sodium citrate, 65 mM citric acid, and 100 mM glucose). Collected blood is placed in a water bath at 37° C. for 30 minutes. Blood is then centrifuged at 275×g for 16 minutes at room temperature and the platelet-rich plasma is removed and centrifuged at 2200×g for 13 minutes at room temperature. The platelet pellet is resuspended in 40 mL of HEPES-buffered Tyrode's solution (137 mM NaCl, 2.7 mM KCl, 1 mM MgCl2, 2 mM CaCl2, 12 mM NaHCO3, 0.36 mM NaH2PO4, 5.5 mM glucose, 5 mM HEPES pH 7.4, 0.35% bovine serum albumin or 0.35% human serum albumin) containing 10 U/mL heparin and 5 μM (final concentration) prostaglandin 12 (PGI2). The platelet suspension is incubated in a 37° C. water bath for 10 minutes and then 5 μM (final conc.) PGI2 is added just before centrifugation at 1900×g for 8 minutes. The resulting pellet is resuspended in 40 mL of HEPES-buffered Tyrode's solution containing 5 μM (final concentration) PGI2 and then is incubated for 10 minutes in a 37° C. water bath. A small aliquot (500 μL) of the platelet suspension is removed for platelet counting. Prior to centrifugation 5 μM (final concentration) PGI2 is added to the suspension and then the suspension is centrifuged at 1900×g for 8 minutes. The pellet is resuspended at a density of 5×10^8 cells/mL in HEPES-buffered Tyrode's solution containing 0.05 U/mL apyrase.
Aggregation Studies: ADP-induced platelet aggregation is determined by measuring the transmission of light through a 0.5 ml suspension of stirred (1000 rpm) washed platelets in a lumi-aggregometer at 37° C. (Chrono-Log Corp. Havertown, Pa.). The baseline of the instrument is set using 0.5 ml of Hepes-buffered Tyrode's solution. Prior to aggregation measurements, the platelet suspension is supplemented with 1 mg/ml fibrinogen. Platelet aggregation is initiated by the addition of indicated concentrations of ADP or other agonists, and the light transmission is continuously recorded for at least 8 min. When inhibitors of platelet aggregation are tested, platelets are incubated for 2 min in the presence of indicated concentrations of inhibitor before addition of ADP or other agonists, and the response is recorded for at least 8 min. The potency of agonists and inhibitors of platelet aggregation is calculated from both the rate of aggregation and the maximal extent of aggregation obtained for each determination by fitting the data to a four-parameter logistic equation using the GraphPad software package (GraphPad Corp. San Diego, Calif.).
IC50 values represent the concentration of antagonist necessary to inhibit by 50% the aggregation elicited by a given concentration of ADP.
Platelet IC50 data were determined using washed human platelets, according to the protocol of example 14. Agonist challenge (ADP) typically in the range of 1-5 μM.

IC50 (Homo sapiens, Platelet, read-out: PLATELET DATA IC50 (uM) Washed Platelets, washed human platelets, agonist challenge (ADP) typically 1-5 μM, average of two experiments or more): 0.081 µM
SMILES: CCNC(=O)Nc1ncnc2c1ncn2C1CC(COCc2ccsc2C(=O)O)C2OC(C=Cc3ccccc3)OC21 (centres unmarked) [Compound 298, 3-{6-[6-(3-Ethyl-ureido)-purin-9-yl]-2-styryl-tetrahydro-cyclopenta[1,3]dioxol-4-ylmethoxymethyl}-thiophene-2-carboxylic acid]
activity as antagonists of P2Y12-mediated platelet aggregation (in words) (comment on Table 1 data, washed human platelets): are active
